In experiment [1] the test system is EMT6. In words: Compound is measured for surviving fractions of EMT6 tumor cells treated in culture with (0.50 uM) concentration for 1 hr under aerobic condition. The class given is functional. Particulars: Mus musculus, EMT6, 1 h; read-out: ED50 (the source's name).
The nature of experiment [2]: Ratio of toxicity in areobic conditions to hypoxic condition of EMT6 cells. Format: functional.
The test system of experiment [3] is EMT6. In words: Percentage of EMT6 tumor cells under hypoxic condition were killed when exposed to 10 uM concentration of the compound. The class given is functional, Mus musculus.
For experiment [4], the system named is EMT6. In words: Compound is measured for surviving fractions of EMT6 tumor cells treated in culture with (0.50 uM) concentration for 1 hr under hypoxic condition. Particulars: Mus musculus, EMT6, 1 h; read-out: ED50 (the source's name). The class given is functional.
Experiment [5] has as its system EMT6. The experiment can be described thus: Maximum effective concentration against EMT6 tumor cells uncer aerobic conditions. Format: functional, cell-based. Particulars: Mus musculus.

We go through ten compounds from ChEMBL document CHEMBL1121562, “2-Methylanthraquinone derivatives as potential bioreductive alkylating agents” (1980).

A word on the Inhibition: it is the drop in the measured response relative to a control, in per cent.

In the case of `Cc1ccc(S(=O)(=O)OCc2ccc3c(c2)C(=O)c2ccccc2C3=O)cc1`, the EC50 is above 1000 µM in experiment [1] and 9 µM in experiment [4]. In experiment [2], the Ratio was above 111. Besides, the Inhibition in experiment [3] is listed as 50%.
Regarding `COc1cccc2c1C(=O)c1c(O)c3c(c(O)c1C2=O)C[C@@](O)(C(=O)CO)C[C@@H]3O[C@H]1C[C@H](N)[C@H](O)[C@H](C)O1` [DOXORUBICIN], the EC50 in experiment [1] is 0.012 µM; in experiment [4], below 0.0001 µM. Further, the Ratio in experiment [2] is recorded as above 120.
For `CC(=O)OCc1ccc2c(c1)C(=O)c1ccccc1C2=O` the same measures were 3.6 µM, 9 µM and 0.4.
For `O=C1c2ccccc2C(=O)c2cc(CCl)ccc21` the same measures were 0.31 µM, below 0.012 µM and above 26.
In the same order, the values of `O=C1c2ccccc2C(=O)c2cc(CO)ccc21` are 348 µM, 2.5 µM and 139.
Turning to `COCc1ccc2c(c1)C(=O)c1ccccc1C2=O`, the EC50 in experiment [1] stood at 30 µM; in experiment [4] it was 0.6 µM. The Ratio in experiment [2] is 50.
In the same order, the values of `Cc1ccc2c(c1)C(=O)c1ccccc1C2=O` [TECTOQUINONE] are 1.7 µM, 0.54 µM and 3.2.
In the same order, the values of `CO[C@@]12[C@H](COC(N)=O)C3=C(C(=O)C(C)=C(N)C3=O)N1C[C@@H]1N[C@@H]12` [MITOMYCIN] are 0.7 µM, 0.001 µM and 700.
Consider `CS(=O)(=O)OCc1ccc2c(c1)C(=O)c1ccccc1C2=O`, for which the EC50 is 180 µM in experiment [1] and 69.6 µM in experiment [4]. In addition, the Ratio in experiment [2] turned out to be 2.6.
As to `CNC(=O)OCc1ccc2c(c1)C(=O)c1ccccc1C2=O`, the EC50 in experiment [1] came out at 8.1 µM; in experiment [4], 0.27 µM. Moreover, the Concentration in experiment [5] was 100 µM. In addition, in experiment [2], the Ratio is given as 30.
